From US10932466B2, “Fungicidal compositions” (SYNGENTA PARTICIPATIONS AG, priority 2016, dated 2021)
Read-outs that look alike come from different tables or passages of the source.

Tests used:
Format in all cases: cell-based
Botrytis cinerea = Botrytis cinerea (gray mould) growth inhibition in PDB, 96-well microtiter plate, photometric after 72 hrs; details: for inhibition at 0.0063 ppm: 1.001 0.0063 ppm alone
Protocol: (§1) V) Botrytis cinerea (Gray Mould): Conidia of the fungus from cryogenic storage were directly mixed into nutrient broth (PDB potato dextrose broth). After placing a (DMSO) solution of the test compounds into a microtiter plate (96-well format), the nutrient broth containing the fungal spores was added. The test plates were incubated at 24 C and the inhibition of growth was determined photometrically after 72 hrs.

Alternaria solani = Alternaria solani (early blight tomato/potato) growth inhibition in PDB, 96-well microtiter plate, photometric after 48 hrs; details: for Compound 1.001 inhibition: 1.001 0.0000 ppm, Table 11; for inhibition at 0.0008 ppm: 1.001 0.0008 ppm alone
Protocol: III) Altemaria solani (Early Blight Tomato/Potato):
as §1, with “Conidia” for “V) Botrytis cinerea (Gray Mould): Conidia”, “48” for “72”

Venturia inaequalis = Venturia inaequalis (apple scab) growth inhibition in PDB, 96-well microtiter plate, photometric after 7 days; details: for inhibition at 0.0016 ppm: 1.001 0.0016 ppm alone; for inhibition at 0.0031 ppm: 1.001 0.0031 ppm alone
Protocol: as §1, with “IV) Venturia inaeaualis (Apple Scab):” for “V) Botrytis cinerea (Gray Mould):”, “7 days.” for “72 hrs.”

Rhizoctonia solani = Rhizoctonia solani (Thanatephorus cucumeris) growth inhibition in PDB, 96-well microtiter plate, photometric and visual after 3-4 days; details: for inhibition at 0.0063 ppm: 1.001 0.0063 ppm alone; for inhibition at 0.0125 ppm: 1.001 0.0125 ppm alone; for inhibition at 0.025 ppm: 1.001 0.0250 ppm alone; for inhibition at 0.05 ppm: 1.001 0.0500 ppm alone; for inhibition at 0.1 ppm: 1.001 0.1000 ppm alone
Protocol: VI) Rhizoctonia solani (Thanatephorus cucumeris) Mycelial fragments of a newly grown liquid culture of the fungus were directly mixed into nutrient broth (PDB potato dextrose broth). After placing a (DMSO) solution of the test compounds into a microtiter plate (96-well format), the nutrient broth containing the fungal material was added. The test plates were incubated at 24° C. and the inhibition of growth was determined photometrically and visually 3-4 days after application.

Septoria tritici = Septoria tritici (leaf blotch) growth inhibition in PDB, 96-well microtiter plate, photometric after 72 hrs; details: Zymoseptoria tritici; for inhibition at 0.0008 ppm: 1.001 0.0008 ppm alone
Protocol: as §1, with “I) Septoria tritici (Leaf Blotch):” for “V) Botrytis cinerea (Gray Mould):”

[1] = tested on: Mycosphaerella arachidis, syn. Cercospora arachidicola; test: Mycosphaerella arachidis (peanut brown leaf spot) growth inhibition in PDB, 96-well microtiter plate, photometric after 5-6 days
Protocol: as §1, with “II) Mycosphaerella arachidis, syn. Cercospora arachidicola (Peanut Brown Leaf Soot):” for “V) Botrytis cinerea (Gray Mould):”, “approximately 5-6 days.” for “72 hrs.”

[2] = Table 6, read-out: Compound 1.001 inhibition
[3] = Table 12, read-out: Compound 1.001 inhibition
[4] = Table 8, read-out: Compound 1.001 inhibition
[5] = Table 14, read-out: Compound 1.001 inhibition

Cc1nnc(Cl)c(-c2c(F)cccc2F)c1-c1ccccc1 [(IIc), 4-(2,6-difluorophenyl)-3-chloro-6-methyl-5-phenyl-pyridazine] gave an inhibition at 0.0156 ppm (Botrytis cinerea; (IIc) 0.0156 ppm alone, Table 7) of 5%, an inhibition at 0.0313 ppm (Botrytis cinerea; (IIc) 0.0313 ppm alone, Table 7, read-out: (IIc) Inhibition) of 4% and an inhibition at 0.002 ppm (Alternaria solani; Alternaria solani, (IIc) 0.0020 ppm alone, Table 5) of 0%. For the same compound, the inhibition at 0.0078 ppm (Venturia inaequalis; (IIc) 0.0078 ppm alone, Table 6) was 0%, the inhibition at 0.0156 ppm (Venturia inaequalis; (IIc) 0.0156 ppm alone, Table 6, read-out: (IIc) Inhibition) was 6% and the inhibition at 0.0313 ppm (Venturia inaequalis; (IIc) 0.0313 ppm alone, Table 6, read-out: (IIc) Inhibition) was 0%. It also gave an inhibition at 0.0313 ppm (Rhizoctonia solani; (IIc) 0.0313 ppm alone, Table 8) of 5%, an inhibition at 0.0625 ppm (Rhizoctonia solani; (IIc) 0.0625 ppm alone, Table 8) of 31% and an inhibition at 0.125 ppm (Rhizoctonia solani; (IIc) 0.1250 ppm alone, Table 8) of 85%. It also gave an inhibition at 0.25 ppm (Rhizoctonia solani; (IIc) 0.2500 ppm alone, Table 8) of 88% and an inhibition at 0.0156 ppm (Septoria tritici; (IIc) 0.0156 ppm alone, Table 4) of 1%.
Cc1nnc(C#N)c(-c2c(F)cccc2F)c1-c1ccccc1 [(IId), 4-(2,6-difluorophenyl)-6-methyl-5-phenyl-pyridazine-3-carbonitrile] gave an inhibition at 0.0313 ppm (Botrytis cinerea; (IId) 0.0313 ppm alone, Table 13, read-out: (IId) Inhibition) of 0%, an inhibition at 0.0625 ppm (Botrytis cinerea; (IId) 0.0625 ppm alone, Table 13) of 0% and an inhibition at 0.0039 ppm ([1]; (IId) 0.0039 ppm alone, Table 10) of 5%. For the same compound, the inhibition at 0.0313 ppm ([1]; (IId) 0.0313 ppm alone, Table 10) was 5%, the inhibition at 0.0156 ppm (Venturia inaequalis; (IId) 0.0156 ppm alone, Table 12, read-out: (IId) Inhibition) was 0% and the inhibition at 0.0313 ppm (Venturia inaequalis; (IId) 0.0313 ppm alone, Table 12, read-out: (IId) Inhibition) was 15%. It also gave an inhibition at 0.0625 ppm (Venturia inaequalis; (IId) 0.0625 ppm alone, Table 12) of 0%, an inhibition at 0.5 ppm (Rhizoctonia solani; (IId) 0.5000 ppm alone, Table 14) of 31% and an inhibition at 0.0313 ppm (Septoria tritici; (IId) 0.0313 ppm alone, Table 9) of 3%. The inhibition at 0.0625 ppm (Septoria tritici; (IId) 0.0625 ppm alone, Table 9) was 8%.
CON(C(=O)c1cn(C)nc1C(F)F)C(C)Cc1c(Cl)cc(Cl)cc1Cl (stereo not drawn) [Compound 1.001, 3-(difluoromethyl)-N-methoxy-1-methyl-N-[1-methyl-2-(2,4,6-trichlorophenyl)ethyl]pyrazole-4-carboxamide] was tested, and the inhibition at 0.0063 ppm (Botrytis cinerea; Table 7, read-out: Compound 1.001 inhibition) was 30%, the inhibition at 0.0063 ppm (Botrytis cinerea; Table 13, read-out: Compound 1.001 inhibition) was 34% and the inhibition at 0.0004 ppm ([1]; 1.001 0.0004 ppm alone, Table 10, read-out: Compound 1.001 inhibition) was 47%. The “Compound 1.001 inhibition” value (Alternaria solani; (IId) 0.0039 ppm) was 9%, the “Compound 1.001 inhibition” value (Alternaria solani; (IId) 0.0078 ppm) was 6% and the “Compound 1.001 inhibition” value (Alternaria solani; (IId) 0.0156 ppm) was 10%. For the same compound, the “Compound 1.001 inhibition” value (Alternaria solani; (IId) 0.0625 ppm) was 6%, the “Compound 1.001 inhibition” value (Alternaria solani; (IId) 0.1250 ppm) was 0% and the inhibition at 0.0004 ppm (Alternaria solani; Alternaria solani, 1.001 0.0004 ppm alone, Table 11, read-out: Compound 1.001 inhibition) was 26%. For the same compound, the inhibition at 0.0008 ppm (Alternaria solani; Alternaria solani, Table 5, read-out: Compound 1.001 inhibition) was 23%, the inhibition at 0.0008 ppm (Alternaria solani; Alternaria solani, Table 11, read-out: Compound 1.001 inhibition) was 34% and the inhibition at 0.0016 ppm (Alternaria solani; Alternaria solani, 1.001 0.0016 ppm alone, Table 11, read-out: Compound 1.001 inhibition) was 60%. The inhibition at 0.0016 ppm (Venturia inaequalis; [2]) was 62%, the inhibition at 0.0016 ppm (Venturia inaequalis; [3]) was 50% and the inhibition at 0.0031 ppm (Venturia inaequalis; [2]) was 84%. The inhibition at 0.0031 ppm (Venturia inaequalis; [3]) was 81%, the inhibition at 0.0031 ppm (Rhizoctonia solani; 1.001 0.0031 ppm alone, Table 8, read-out: Compound 1.001 inhibition) was 13% and the inhibition at 0.0063 ppm (Rhizoctonia solani; [4]) was 16%. For the same compound, the inhibition at 0.0063 ppm (Rhizoctonia solani; [5]) was 0%, the inhibition at 0.0125 ppm (Rhizoctonia solani; [4]) was 0% and the inhibition at 0.0125 ppm (Rhizoctonia solani; [5]) was 0%. For the same compound, the inhibition at 0.025 ppm (Rhizoctonia solani; [4]) was 0%, the inhibition at 0.025 ppm (Rhizoctonia solani; [5]) was 9% and the inhibition at 0.05 ppm (Rhizoctonia solani; [4]) was 15%. For the same compound, the inhibition at 0.05 ppm (Rhizoctonia solani; [5]) was 0%, the inhibition at 0.1 ppm (Rhizoctonia solani; [4]) was 0% and the inhibition at 0.1 ppm (Rhizoctonia solani; [5]) was 0%. For the same compound, the inhibition at 0.0008 ppm (Septoria tritici; Table 4, read-out: Compound 1.001 inhibition) was 49%, the inhibition at 0.0008 ppm (Septoria tritici; Table 9, read-out: Compound 1.001 inhibition) was 45% and the inhibition at 0.0016 ppm (Septoria tritici; 1.001 0.0016 ppm alone, Table 9, read-out: Compound 1.001 inhibition) was 81%.
